Laboratory results from patent publication US20240325394A1, “SALT AND CRYSTAL FORM OF NITROGEN-CONTAINING HETEROCYCLIC DERIVATIVE, PREPARATION METHOD THEREFOR AND APPLICATION THEREOF” (SHANGHAI HANSOH BIOMEDICAL CO., LTD., priority 2020, published 2024).

Experiments:
[1] = Plasma stability, dog plasma; type: in vitro ADME; settings: dog plasma, 37° C.
Procedure: (§1) Animal or human whole blood was collected, then the blood was put into a test tube containing anticoagulant, centrifuged at 3500 rpm for 10 min, and the upper layer of pale yellow plasma was collected. • 2) 10 μM of tested compound (m/M/V=C)
(§2) The compound was weighed, the stock solution was prepared with DMSO and the working solution was prepared with 100 mM phosphate buffer. • 3) 10 μM of positive control • (1) Propantheline (Propantheline Mr=449.4 Da)
(§3) • 1) 285 μL of plasma and 15 μL of 10 μM compound (tested compound) were added in turn in a 96-well plate, and incubated at 37° C. • 2) 40 μL was taken out at 0, 15, 30, 60, 90, 120 min, respectively, and 160 μL of acetonitrile termination solution containing internal standard was added. • 3) After centrifugation (3500 rpm, 10 min), 50 μL of supernatant was taken out, and then diluted with 50 μL DDH2O and injected to LC-MS/MS.
(§4) • instrument: Shimadzu LC-20 AD • chromatographic column: phenomenex Gemiu® C18 (50*4.6 mm, 5 μM particle size); • mobile phase: A: acetonitrile, B: 0.1% formic acid solution 0-8 min: 5% A→95% A, 2.0-2.1 min: 90% A→5% A; flow rate: 0.8 mL/min; running time: 5.0 min; injection volume: 5 μL.
(§5) • instrument: API4000 Liquid Chromatography-Mass Spectrometry, AB, USA; • the ion source was electrospray ionization source (ESI); • the temperature of dry gas (N2) was 500° C.; • electrospray voltage was 5500V; • the detection method was positive ion detection; • the scanning mode was selective response monitoring (MRM); • the scanning time was 0.1 s.

hERG potassium channel = target: T1, hERG potassium channel (Homo sapiens, UniProt Q12809); assay: hERG potassium channel inhibitory activity test (Qpatch, CHO-hERG cells); type: cell-based; settings: highest test concentration 40 μM, read-out: hERG (μM), inhibition at multiple concentrations on hERG current
T1 construct: expressed in transfected cells; host or cells: CHO-hERG cells
Procedure: 7.1.1 CHO-hERG cells were cultured in a 175 cm^2 flask, when the cell density reached 60-80%, the culture medium was removed, the cells were washed with 7 mL PBS, and then digested with 3 mL Detachin. 7.1.2 After complete digestion, 7 mL culture medium was added to neutralize, then the mixture was centrifuged, the supernatant was aspirated, and then 5 mL culture medium was added to re-suspend, ensuring 2-5×10^6/mL of cell density.
The process of single cell high impedance sealing and whole cell mode formation were all automatically completed by Qpatch instrument, after obtaining the whole cell recording mode, the cells were clamped at −80 mV, before giving a 5-second +40 mV depolarization stimulus, a 50 millisecond −50 mV prevoltage was given first, and then repolarized to −50 mV for 5 seconds, then returned to −80 mV. This voltage stimulation was applied every 15 seconds and recorded for 2 minutes before giving extracellular fluid recordings for 5 minutes, and then the administration process was started, the compound concentration was given from the lowest test concentration, each test concentration was given for 2.5 minutes, and the positive control compound 3 μM of Cisapride was given after all concentrations were continuously given. At least 3 cells (n≥3) were tested at each concentration.
7.4.1 20 mM of compound mother liquor was diluted with extracellular fluid, 5 μL of 20 mM compound mother liquor was added into 2495 μL of extracellular fluid and diluted 500-fold to 40 μM, and then the final concentration to be tested was obtained by sequential 3-fold serial dilutions in extracellular solution containing 0.2% DMSO. 7.4.2 The highest test concentration was 40 μM, in a total of 6 concentrations of 40, 13.33, 4.44, 1.48, 0.49 and 0.16 μM respectively. 7.4.3 The content of DMSO in the final test concentration was not more than 0.2%, and this concentration of DMSO had no effect on hERG potassium channel.
The experimental data were analyzed by XLFit software. […]

[2] = Plasma stability, mouse plasma; type: in vitro ADME; settings: mouse plasma, 37° C.
Procedure: as §1, §2, §3, §4, §5

[3] = Plasma stability, human plasma; type: in vitro ADME; settings: human, 0.5 μM
Procedure: as §1, §2, §3, §4, §5

[4] = Plasma stability, rat plasma; type: in vitro ADME; settings: rat plasma, 37° C.
Procedure: as §1, §2, §3, §4, §5

T1 sequence (Q12809 whole entry): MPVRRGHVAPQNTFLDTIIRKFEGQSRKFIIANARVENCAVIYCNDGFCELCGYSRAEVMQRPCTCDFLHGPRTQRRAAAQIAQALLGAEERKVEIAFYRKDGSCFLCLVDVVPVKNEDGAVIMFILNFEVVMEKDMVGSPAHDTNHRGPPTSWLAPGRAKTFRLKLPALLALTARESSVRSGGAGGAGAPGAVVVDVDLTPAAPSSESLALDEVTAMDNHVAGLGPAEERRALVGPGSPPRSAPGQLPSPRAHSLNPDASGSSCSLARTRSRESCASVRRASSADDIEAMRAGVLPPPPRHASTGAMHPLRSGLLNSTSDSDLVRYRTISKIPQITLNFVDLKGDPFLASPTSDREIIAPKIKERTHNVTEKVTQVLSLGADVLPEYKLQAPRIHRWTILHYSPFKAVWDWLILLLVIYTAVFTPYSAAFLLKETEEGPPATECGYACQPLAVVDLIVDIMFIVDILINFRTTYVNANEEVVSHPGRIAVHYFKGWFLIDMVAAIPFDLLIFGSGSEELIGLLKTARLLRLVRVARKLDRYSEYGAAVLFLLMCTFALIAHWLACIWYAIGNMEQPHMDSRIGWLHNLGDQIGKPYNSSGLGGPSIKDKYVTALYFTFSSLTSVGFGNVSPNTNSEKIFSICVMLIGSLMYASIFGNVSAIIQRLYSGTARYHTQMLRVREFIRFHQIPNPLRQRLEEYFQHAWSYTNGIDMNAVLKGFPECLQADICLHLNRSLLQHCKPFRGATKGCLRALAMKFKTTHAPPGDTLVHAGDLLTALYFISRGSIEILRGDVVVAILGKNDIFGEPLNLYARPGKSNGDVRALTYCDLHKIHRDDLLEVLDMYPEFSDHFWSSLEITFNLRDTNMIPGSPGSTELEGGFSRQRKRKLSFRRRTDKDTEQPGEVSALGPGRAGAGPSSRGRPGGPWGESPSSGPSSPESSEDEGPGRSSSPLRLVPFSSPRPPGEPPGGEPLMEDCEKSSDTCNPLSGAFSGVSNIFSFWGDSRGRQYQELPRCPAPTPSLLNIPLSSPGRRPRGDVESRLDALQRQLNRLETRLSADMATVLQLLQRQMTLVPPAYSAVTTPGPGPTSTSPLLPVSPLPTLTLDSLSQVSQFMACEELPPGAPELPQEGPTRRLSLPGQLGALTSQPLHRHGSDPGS

Compound: C=CC(=O)N1C[C@H](C)N(c2nc(=O)n(-c3c(SC)ccnc3C(C)C)c3nc(-c4c(O)cccc4F)c(Cl)cc23)C[C@H]1C (atropisomer, axis not shown) [Embodiment 14-1, P-4-((2S,5R)-4-Acryloyl-2,5-dimethylpiperazin-1-yl)-6-chloro-7-(2-fluoro-6-hydroxyphenyl)-1-(2-isopropyl-4-(methylthio)pyridin-3-yl)pyrido[2,3-d]pyrimidin-2(1H)-one]
- Residual rate (%) 0 min ([1]; 0 min): 100.00%
- Residual rate (%) 15 min ([1]; 15 min): 99.98%
- Residual rate (%) 30 min ([1]; 30 min): 98.79%
- Residual rate (%) 60 min ([1]; 60 min): 93.69%
- Residual rate (%) 120 min ([1]; 120 min): 86.16%
- IC50 (hERG potassium channel): > 30 µM
- Residual rate (%) 0 min ([2]; 0 min): 100.00%
- Residual rate (%) 15 min ([2]; 15 min): 105.42%
- Residual rate (%) 30 min ([2]; 30 min): 100.02%
- Residual rate (%) 60 min ([2]; 60 min): 99.12%
- Residual rate (%) 120 min ([2]; 120 min): 85.55%
- Residual rate (%) 0 min ([3]; 0 min): 100.00%
- Residual rate (%) 15 min ([3]; 15 min): 99.15%
- Residual rate (%) 30 min ([3]; 30 min): 94.74%
- Residual rate (%) 60 min ([3]; 60 min): 89.14%
- Residual rate (%) 120 min ([3]; 120 min): 78.85%
- Residual rate (%) 0 min ([4]; 0 min): 100.00%
- Residual rate (%) 15 min ([4]; 15 min): 93.20%
- Residual rate (%) 30 min ([4]; 30 min): 98.32%
- Residual rate (%) 60 min ([4]; 60 min): 99.08%
- Residual rate (%) 120 min ([4]; 120 min): 96.46%
